Data on eight compounds can be found in US10543195B2, “Peptides for skin rejuvenation and methods of using the same” (Anteis SA, priority 2013, dated 2020).

Experiment [1] concerns hyaluronic acid. Description: Hyaluronic acid ELISA in culture supernatant of NHDF. It is filed as cell-based, human. As to conditions: 72 h. From the text: For the interpretation of the data related to the stimulation of the formation of extracellular matrix components as determined during the in vitro experiments, a “significant” stimulation of the formation of extracellular matrix components means a stimulation of at least 20% more than measured using a control material under identical experimental conditions. The control material is the identical material (here: assay medium) as used when testing the active (here: peptide(s)) but without the active(s).
Normal human dermal fibroblasts (NHDF); used at the 8th passage, were cultured in culture medium (DMEM supplemented with 10% fetal calf serum, 2 mM L-glutamine, 50 U/ml penicillin, and 50 μg/ml streptomycin) in 96-well plates for 24 h at 37° C. and 5% CO2.
Afterwards, the culture medium was removed and replaced by assay medium (DMEM culture medium supplemented with 2% fetal calf serum, 2 mM L-glutamine, 50 U/ml penicillin, and 50 μg/ml streptomycin) containing the test peptides or not (control). The cells were then incubated for 72 h. All experimental conditions were performed 3-times (n=3). At the end of the incubation, culture supernatants were collected and immediately frozen at about −80° C.
Hyaluronic acid was quantified in the culture supernatant using the Duoset Hylaluronan ELISA kit (R&D Systems Ref. DY3614, 0.37 ng/ml as low detection limit) according to the provider's specifications.
This evaluation was realized with non-cytotoxic concentrations of the test peptides. Cytotoxicity of the test peptides in the assay medium was previously determined in NHDF by the MTT reduction assay and morphological observations with help of microscope after a 72 h incubation time.
In general terms: An ELISA detects its analyte on a solid surface through an enzyme-linked reagent.

Experiment [2] deals with hyaluronic acid. As to conditions: oil-in-water vehicle containing 50 ppm GEKG for sixty days; cited from earlier work.
For the next experiment, the system named is collagen III (alpha 1). Description: RT-qPCR gene expression in NHDF: collagen III (alpha 1). Type of experiment: cell-based, human. The conditions noted are these: 24 h, vs control; for stimulation of formation of collagen III (alpha 1) (mRNA, RT-qPCR): 300 ppm (0.03%). How it is done: (§1) Normal human dermal fibroblasts (NHDF); used at the 8th passage, were cultured in culture medium (DMEM supplemented with 10% fetal calf serum, 2 mM L-glutamine, 50 U/ml penicillin, and 50 μg/ml streptomycin) in 24-well plates for 48 h at 37° C. and 5% CO2 with a renewal of culture medium after 24 h. The culture medium was then removed, replaced by assay medium (DMEM culture medium supplemented with 1% fetal calf serum, 2 mM L-glutamine, 50 U/ml penicillin, and 50 μg/ml streptomycin) and the cells were further incubated for 24 h. The cells were then treated with the test peptides, or not (control), or with the reference TGF-beta 1 and incubated for 24 h. All experimental conditions were performed 4-times (n=4). At the end of the incubation, the cells were washed in PBS solution and immediately frozen at about −80° C. The expression of the markers was analyzed using quantitative real time polymerase chain reaction (RT-qPCR) method on mRNA extracted from the cell monolayers for each treatment; whereby the replicates were pooled before RNA extraction. Analysis of gene expression was performed in duplicate (n=2) using a PCR array. Total RNA was extracted from each sample using TriPure Isolation Reagent® according to the supplier's instructions. The amount and quality of RNA were evaluated using a lab-on-a-chip Bioanalyzer (Agilent Technologies). […] Quantification of cDNA was performed using Nanovue (GE Healthcare) and cDNA was adjusted. […]
(§2) The incorporation of the fluorescence in amplified DNA was continuously measured during the PCR cycles. […] The value selected for RE calculations is the “output point” (Ct) of the fluorescence curve. For a considered marker, the highest is the cycle number; the lowest is the mRNA quantity. […]
(§3) This evaluation was realized with non-cytotoxic concentrations of the test peptides. Cytotoxicity of the test peptides in the assay medium was previously determined in NHDF by the MTT reduction assay and morphological observations with help of microscope after a 24 h incubation time. […]
A general note: Quantitative PCR measures a nucleic acid by following its amplification.

In another experiment the test system is collagen I (alpha 1). Description: RT-qPCR gene expression in NHDF: collagen I (alpha 1). Type of experiment: cell-based, human. As to conditions: 24 h, vs control; for stimulation of formation of collagen I (alpha 1) (mRNA, RT-qPCR): 300 ppm (0.03%). How it is done: as §1, §2, §3
The next experiment deals with rat experimental wounds. The conditions noted are these: cited from earlier work.
For a further experiment, the system named is collagen I. The conditions noted are these: ELISA, normal human dermal fibroblasts; cited from earlier work.
In another experiment the test system is collagen III. The conditions noted are these: immunofluorescence, normal human dermal fibroblasts; cited from earlier work.
A further experiment deals with collagen VII (alpha 1). Briefly: RT-qPCR gene expression in NHDF: collagen VII (alpha 1). It is filed as cell-based, human. The conditions noted are these: 300 ppm (0.03%), 24 h, vs control. How it is done: as §1, with “All experimental conditions were performed 4-times (n=4). At the end of the incubation, the cells were washed in PBS solution and immediately frozen at about −80° C.” left out, “Analysis of gene expression was performed in duplicate (n=2) using a PCR array. Total RNA was extracted from each sample using TriPure Isolation Reagent® according to the supplier's instructions.” left out
as §2

In the next experiment the test system is collagen XVI (alpha 1). Description: RT-qPCR gene expression in NHDF: collagen XVI (alpha 1). It is filed as cell-based, human. The conditions noted are these: 300 ppm (0.03%), 24 h, vs control. As for the experimental part:
as §1, with “All experimental conditions were performed 4-times (n=4). At the end of the incubation, the cells were washed in PBS solution and immediately frozen at about −80° C.” left out, “Analysis of gene expression was performed in duplicate (n=2) using a PCR array. Total RNA was extracted from each sample using TriPure Isolation Reagent® according to the supplier's instructions.” left out
as §2

In the next experiment the test system is hyaluronan synthase 2. Description: RT-qPCR gene expression in NHDF: hyaluronan synthase 2. It is filed as cell-based, human. The conditions noted are these: 300 ppm (0.03%), 24 h, vs control. How it is done:
as §1, with “All experimental conditions were performed 4-times (n=4). At the end of the incubation, the cells were washed in PBS solution and immediately frozen at about −80° C.” left out, “Analysis of gene expression was performed in duplicate (n=2) using a PCR array. Total RNA was extracted from each sample using TriPure Isolation Reagent® according to the supplier's instructions.” left out
as §2

A further experiment relates to laminin (alpha 4). Briefly: RT-qPCR gene expression in NHDF: laminin (alpha 4). The conditions noted are these: 300 ppm (0.03%), 24 h, vs control. It is filed as cell-based, human. How it is done:
as §1, with “All experimental conditions were performed 4-times (n=4). At the end of the incubation, the cells were washed in PBS solution and immediately frozen at about −80° C.” left out, “Analysis of gene expression was performed in duplicate (n=2) using a PCR array. Total RNA was extracted from each sample using TriPure Isolation Reagent® according to the supplier's instructions.” left out
as §2

The next experiment has as its system collagen VI (alpha 1). Description: RT-qPCR gene expression in NHDF: collagen VI (alpha 1). It is filed as cell-based, human. As to conditions: 300 ppm (0.03%), 24 h, vs control. How it is done: as §1, with “All experimental conditions were performed 4-times (n=4). At the end of the incubation, the cells were washed in PBS solution and immediately frozen at about −80° C.” left out, “Analysis of gene expression was performed in duplicate (n=2) using a PCR array. Total RNA was extracted from each sample using TriPure Isolation Reagent® according to the supplier's instructions.” left out
as §2

Experiment [3] deals with heparan sulfate protoglycan 2. Briefly: RT-qPCR gene expression in NHDF: heparan sulfate protoglycan 2. It is filed as cell-based, human. The conditions noted are these: 300 ppm (0.03%), 24 h, vs control. How it is done: as §1, with “All experimental conditions were performed 4-times (n=4). At the end of the incubation, the cells were washed in PBS solution and immediately frozen at about −80° C.” left out, “Analysis of gene expression was performed in duplicate (n=2) using a PCR array. Total RNA was extracted from each sample using TriPure Isolation Reagent® according to the supplier's instructions.” left out
as §2

A further experiment relates to fibrillin 1. Description: RT-qPCR gene expression in NHDF: fibrillin 1. It is filed as cell-based, human. As to conditions: 300 ppm (0.03%), 24 h, vs control. As for the experimental part: as §1, with “All experimental conditions were performed 4-times (n=4). At the end of the incubation, the cells were washed in PBS solution and immediately frozen at about −80° C.” left out, “Analysis of gene expression was performed in duplicate (n=2) using a PCR array. Total RNA was extracted from each sample using TriPure Isolation Reagent® according to the supplier's instructions.” left out
as §2

Another experiment has as its system elastin. Description: RT-qPCR gene expression in NHDF: elastin. It is filed as cell-based, human. The conditions noted are these: 300 ppm (0.03%), 24 h, vs control. How it is done:
as §1, with “All experimental conditions were performed 4-times (n=4). At the end of the incubation, the cells were washed in PBS solution and immediately frozen at about −80° C.” left out, “Analysis of gene expression was performed in duplicate (n=2) using a PCR array. Total RNA was extracted from each sample using TriPure Isolation Reagent® according to the supplier's instructions.” left out
as §2

Another experiment relates to collagen V (alpha 1). Description: RT-qPCR gene expression in NHDF: collagen V (alpha 1). As to conditions: 300 ppm (0.03%), 24 h, vs control. Type of experiment: cell-based, human. As for the experimental part:
as §1, with “All experimental conditions were performed 4-times (n=4). At the end of the incubation, the cells were washed in PBS solution and immediately frozen at about −80° C.” left out, “Analysis of gene expression was performed in duplicate (n=2) using a PCR array. Total RNA was extracted from each sample using TriPure Isolation Reagent® according to the supplier's instructions.” left out
as §2

In another experiment the test system is human skin explants. As to conditions: 3H-proline-incorporation; cited from earlier work.

* marks the point of attachment. Palmitoyl = CCCCCCCCCCCCCCCC(=O)*

As for NH2-Gly-Glu-Lys-Gly-OH (H-GEKG-OH), the “stimulation of synthesis of hyaluronic acid” value in the experiment on hyaluronic acid [1] (alone at 100 or 300 ppm) is reported as “up to 25%”. For the same compound, the hyaluronic acid formation entry in the experiment on hyaluronic acid [2] is “stimulate hyaluronic acid formation”.

Turning to “TGF-beta 1: reference TGF-beta 1 (10 ng/ml) in the gene expression test”, in the experiment with collagen III (alpha 1) (10 ng/ml), the “stimulation of formation of collagen III (mRNA, RT-qPCR)” value is recorded as 164%. Besides, the “stimulation of formation of collagen I (mRNA, RT-qPCR)” value with collagen I (alpha 1) (10 ng/ml) is 245%.

Turning to GHK-Cu, the collagen accumulation result with rat experimental wounds is on record as “statistical significant increase of collagen accumulation”.

With `NCCC(=O)N[C@@H](Cc1cnc[nH]1)C(=O)O` [beta-alanyl-histidine], in the experiment on collagen III (alpha 1), the “stimulation of formation of collagen III (alpha 1) (mRNA, RT-qPCR)” value is on record as 24%. Further, the “stimulation of formation of collagen I (alpha 1) (mRNA, RT-qPCR)” value in the experiment with collagen I (alpha 1) came out at 28%.

Take palmitoyl-KMO2K—OH: in the experiment on collagen I, the “increase of collagen I formation” value is reported as 111%. Further, the “increase of collagen III formation” value in the experiment on collagen III is reported as 104%.

For Gly-His-Lys [GHK], the collagen accumulation result in the experiment on rat experimental wounds is listed as “no effect”.

For `CCCCCCCC(=O)NCCC(=O)NC(Cc1cnc[nH]1)C(=O)O` (stereo not drawn) [Octanoyl Carnosine, Octanoyl-beta-Ala-His-OH], the “stimulation of formation of collagen III (alpha 1) (mRNA, RT-qPCR)” value in the experiment with collagen III (alpha 1) was determined as 120%. For the same compound, the “stimulation of formation of collagen VII (alpha 1) (mRNA, RT-qPCR)” value in the experiment with collagen VII (alpha 1) came out at 97%. In addition, the “stimulation of formation of collagen XVI (alpha 1) (mRNA, RT-qPCR)” value in the experiment on collagen XVI (alpha 1) is given as 91%. In addition, in the experiment on hyaluronan synthase 2, the “stimulation of formation of hyaluronan synthase 2 (mRNA, RT-qPCR)” value is given as 23%. In the experiment on laminin (alpha 4), the “stimulation of formation of laminin (alpha 4) (mRNA, RT-qPCR)” value amounted to 20%. Also, in the experiment with collagen VI (alpha 1), the “stimulation of formation of collagen VI (alpha 1) (mRNA, RT-qPCR)” value is reported as 46%. Moreover, the “stimulation of formation of collagen I (alpha 1) (mRNA, RT-qPCR)” value in the experiment on collagen I (alpha 1) came to 38%. Further, the “stimulation of synthesis of hyaluronic acid” value in the experiment with hyaluronic acid [1] (alone at 100 pm) is −5%. Further, the “stimulation of formation of heparan sulfate protoglycan 2 (mRNA, RT-qPCR)” value in [3] was 79%. Besides, the “stimulation of formation of fibrillin 1 (mRNA, RT-qPCR)” value in the experiment with fibrillin 1 was 23%. Also, the “stimulation of formation of elastin (mRNA, RT-qPCR)” value with elastin came to 51%. Further, in the experiment with collagen V (alpha 1), the “stimulation of formation of collagen V (alpha 1) (mRNA, RT-qPCR)” value was determined as 35%.

With “Palmitoyl-Gly-His-Lys-OH [Palmitoyl-GHK]”, the “increase of collagen synthesis” value in the experiment on human skin explants is “up to 75.3%”. In addition, the “stimulation of synthesis of hyaluronic acid” value in the experiment on hyaluronic acid [1] (alone at 10 or 30 ppm) is “up to 11%”.
